Laboratory results published in ChEMBL document CHEMBL4261647, “Synthesis, DNA and protein interactions and human topoisomerase inhibition of novel Spiroacridine derivatives” (Bioorg Med Chem, 2018).

Legend:
Calf thymus DNA [1] = experiment: Binding affinity to calf thymus DNA assessed as hypochromic effect up to 10 uM by UV-vis absorption spectral analysis; type: nucleic-acid assay; conditions: Bos taurus
Calf thymus DNA [2] = experiment: Binding affinity to calf thymus DNA by UV-vis absorption spectral analysis; type: nucleic-acid assay; conditions: Bos taurus
[3] = molecular target: DNA topoisomerase 2-alpha (Homo sapiens) (UniProt P11388); experiment: Inhibition of recombinant human topoisomerase 2alpha assessed as decrease in relaxation of supercoiled pUC19 DNA at 100 uM after 30 mins by ethidium bromide staining based agarose gel electrophoresis relative to control
Albumin [4] = molecular target: T1, Albumin (Bos taurus, UniProt P02769); experiment: Binding affinity to bovine serum albumin assessed as decrease in protein fluorescence intensity up to 10 uM by fluorescence spectroscopic analysis; type: ADME; design: scale not given: the % may be the effect or the level left; conditions: cattle, isolated protein
Albumin [5] = molecular target: T1, Albumin; experiment: Binding affinity to bovine serum albumin assessed as Stern-Volmer quenching constant by fluorescence spectroscopic analysis; type: ADME; conditions: cattle, isolated protein
Calf thymus DNA [6] = experiment: Binding affinity to calf thymus DNA assessed as hyperchromic effect up to 10 uM by UV-vis absorption spectral analysis; type: nucleic-acid assay; conditions: Bos taurus

T1 sequence (P02769 whole entry): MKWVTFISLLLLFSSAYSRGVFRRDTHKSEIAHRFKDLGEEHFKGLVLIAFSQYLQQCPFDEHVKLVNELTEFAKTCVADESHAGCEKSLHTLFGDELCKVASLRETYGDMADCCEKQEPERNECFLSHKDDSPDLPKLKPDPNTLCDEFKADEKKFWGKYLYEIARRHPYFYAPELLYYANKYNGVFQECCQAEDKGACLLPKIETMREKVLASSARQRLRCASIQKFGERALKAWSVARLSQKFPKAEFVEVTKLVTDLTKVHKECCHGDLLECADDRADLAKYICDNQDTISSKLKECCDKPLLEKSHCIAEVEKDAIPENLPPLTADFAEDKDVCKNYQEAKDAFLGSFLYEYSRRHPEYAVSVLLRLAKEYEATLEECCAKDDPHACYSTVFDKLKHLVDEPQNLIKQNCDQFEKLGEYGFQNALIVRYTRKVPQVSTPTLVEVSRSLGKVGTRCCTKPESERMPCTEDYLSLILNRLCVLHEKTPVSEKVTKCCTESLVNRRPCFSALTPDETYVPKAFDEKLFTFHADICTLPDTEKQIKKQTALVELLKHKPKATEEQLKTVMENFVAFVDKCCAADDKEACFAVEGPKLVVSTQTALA
Chain of DNA topoisomerase 2-alpha (Homo sapiens) (P11388 whole entry): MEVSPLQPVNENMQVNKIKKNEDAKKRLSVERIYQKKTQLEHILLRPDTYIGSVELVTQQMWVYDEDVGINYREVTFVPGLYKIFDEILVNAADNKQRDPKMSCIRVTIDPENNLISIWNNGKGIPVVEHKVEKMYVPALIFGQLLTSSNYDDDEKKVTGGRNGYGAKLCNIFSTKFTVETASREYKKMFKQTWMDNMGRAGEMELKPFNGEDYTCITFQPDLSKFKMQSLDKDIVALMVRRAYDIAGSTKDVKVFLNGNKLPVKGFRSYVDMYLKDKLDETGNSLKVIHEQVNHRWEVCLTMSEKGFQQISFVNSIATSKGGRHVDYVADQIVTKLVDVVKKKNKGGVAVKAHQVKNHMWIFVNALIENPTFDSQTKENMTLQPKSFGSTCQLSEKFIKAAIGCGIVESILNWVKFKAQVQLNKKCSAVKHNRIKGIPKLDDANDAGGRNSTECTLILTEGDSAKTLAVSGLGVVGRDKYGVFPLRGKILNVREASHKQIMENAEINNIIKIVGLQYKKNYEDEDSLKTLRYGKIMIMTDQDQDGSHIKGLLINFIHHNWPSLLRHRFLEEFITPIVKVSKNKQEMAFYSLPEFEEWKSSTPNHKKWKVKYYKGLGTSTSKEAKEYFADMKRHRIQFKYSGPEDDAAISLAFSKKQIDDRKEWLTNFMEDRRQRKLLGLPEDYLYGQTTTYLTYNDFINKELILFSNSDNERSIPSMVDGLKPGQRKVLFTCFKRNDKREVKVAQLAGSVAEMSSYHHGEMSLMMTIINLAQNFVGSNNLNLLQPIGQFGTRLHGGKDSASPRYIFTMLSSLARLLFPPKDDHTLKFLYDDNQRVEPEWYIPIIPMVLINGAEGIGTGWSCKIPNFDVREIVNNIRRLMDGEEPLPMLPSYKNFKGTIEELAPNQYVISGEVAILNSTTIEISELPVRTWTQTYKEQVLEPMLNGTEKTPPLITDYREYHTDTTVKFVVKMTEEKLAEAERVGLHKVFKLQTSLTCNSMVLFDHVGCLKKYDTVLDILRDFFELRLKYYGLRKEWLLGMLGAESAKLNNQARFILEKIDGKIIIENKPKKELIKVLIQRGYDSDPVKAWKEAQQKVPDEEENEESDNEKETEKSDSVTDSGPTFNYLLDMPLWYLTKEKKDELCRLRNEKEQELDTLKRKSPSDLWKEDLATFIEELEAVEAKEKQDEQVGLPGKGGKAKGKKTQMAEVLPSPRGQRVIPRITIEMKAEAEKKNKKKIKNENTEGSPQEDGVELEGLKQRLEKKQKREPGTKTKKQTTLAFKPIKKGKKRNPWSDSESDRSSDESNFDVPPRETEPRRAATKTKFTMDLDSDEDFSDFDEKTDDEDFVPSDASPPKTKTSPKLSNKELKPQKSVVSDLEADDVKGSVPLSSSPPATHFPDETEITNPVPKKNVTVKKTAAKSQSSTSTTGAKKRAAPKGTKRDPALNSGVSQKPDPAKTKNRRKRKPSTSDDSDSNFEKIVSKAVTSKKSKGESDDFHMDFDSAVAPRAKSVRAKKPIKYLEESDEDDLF

Row | Activity (Calf thymus DNA [1]) [%] | Kb (Calf thymus DNA [2]) | inhibition [3] [%] | Activity (Albumin [4]) [%] | KSV (Albumin [5]) [×10⁴ /M] | Activity (Calf thymus DNA [6]) [%] | SMILES
1 | 30 | 1.6 ×10⁵ /M | 15.9 | 45.77 | 2.1 | – | N#CC1=CC2(c3ccccc3Nc3ccccc32)N(/N=C/c2c(Cl)cccc2Cl)C1=O
2 | – | 8.2 ×10⁵ /M | 61.7 | 48.01 | 2 | 65.3 | N#CC1=CC2(c3ccccc3Nc3ccccc32)N(/N=C/c2ccc(Cl)cc2Cl)C1=O
3 | – | – | 9.78 | – | – | – | N#CC1=CC2(c3ccccc3Nc3ccccc32)N(/N=C/c2ccccc2)C1=O
4 | 44.3 | 7.6 ×10⁵ /M | 84.3 | 60.3 | 3.4 | – | N#CC1=CC2(c3ccccc3Nc3ccccc32)N(/N=C/c2ccc(Cl)cc2)C1=O
5 | 8.06 | 3.7 ×10⁵ /M | 1.64 | 51.46 | 2.3 | – | N#CC1=CC2(c3ccccc3Nc3ccccc32)N(/N=C/c2ccccc2[N+](=O)[O-])C1=O
6 | – | 1.5 ×10⁵ /M | 70.7 | 55.11 | 2.3 | 45.8 | N#CC1=CC2(c3ccccc3Nc3ccccc32)N(/N=C/c2ccc(F)cc2)C1=O

Second part, the compound before the results:

Row | SMILES | Activity (Calf thymus DNA [1]) [%] | Kb (Calf thymus DNA [2]) | inhibition [3] [%] | Activity (Albumin [4]) [%] | KSV (Albumin [5]) [×10⁴ /M] | Activity (Calf thymus DNA [6]) [%]
7 | CN(C)c1ccc(/C=N/N2C(=O)C(C#N)=CC23c2ccccc2Nc2ccccc23)cc1 | 7.14 | 1.1 ×10⁸ /M | 1.64 | 54.95 | 2.7 | –
8 | N#CC1=CC2(c3ccccc3Nc3ccccc32)N(/N=C/c2ccc([N+](=O)[O-])cc2)C1=O | 13.5 | 4.8 ×10⁶ /M | 43.7 | 71.74 | 3.1 | –
9 | COc1ccc(Br)cc1/C=N/N1C(=O)C(C#N)=CC12c1ccccc1Nc1ccccc12 | 100 | 6.7 ×10⁵ /M | 1.64 | 42.53 | 1.9 | –
10 | COc1ccc(/C=N/N2C(=O)C(C#N)=CC23c2ccccc2Nc2ccccc23)cc1 | – | – | 88.1 | – | – | –
11 | CCOc1cc(/C=N/N2C(=O)C(C#N)=CC23c2ccccc2Nc2ccccc23)ccc1O | 14.4 | 2.6 ×10⁵ /M | 20.6 | 58.57 | 2.3 | –
